Laboratory results published in paper PMC10373114, “CDK2 regulates collapsed replication fork repair in CCNE1-amplified ovarian cancer cells via homologous recombination” (NAR Cancer, 2023).

Tests used:
[1] = Pharmacokinetics (plasma concentrations after oral dose); type: in vivo, NOD-SCID mice; conditions: single p.o. dose
Excerpt: (A) Chemical structures of BLU2256. […]
family members. Error bars represent SD of at least duplicate independent experiments. (D) NanoBret assessment of BLU2256 target engagement in indicated CDK complexes expressed in HEK-293 cells. Error bars represent SD of at least duplicate independent experiments. (E) Dose-response curve for pRb T821/826 […]
Error bars represent SD of at least duplicate independent experiments. (F) Dose-response curve for pLamin S22 inhibition by BLU1851 in OVCAR-3 and COV644 cells. Error bars represent SD of duplicate independent experiments. (G) Do se -response curves in MCF-7, OVCAR-3 cells. Cells were treated with a 10- point dose response of indicated compounds and incubated for 5 days before CyQuant assay was performed. […]
Contemporaneously, cells were transfected with a 3X-FLAG donor plasmid plus a plasmid containing Cas9 and a single guide RNA (sgRNA), scramble control (sgScr), or an sgRNA targeting beta- actin (sgACTB). […] The percent body weight change is calculated by normalizing to day 0 per treatment group. […] (M) Quantification of Western blot for pRb S807/811 normalized individually to actin and then to vehicle group to calculate % inhibition. […]
(N) Relative body weight over treatment time. The percent body weight change is calculated by normalizing to day 0 per treatment group. […] The percent body weight change is calculated by normalizing to day 0 per treatment group. […]

[2] = tested on: MCF-7 cells; assay: CyQuant proliferation assay; type: cell-based; conditions: proliferation, 5 days, CyQuant; mean of two independent replicates; read-out: MCF-7 IC50
Description: (§1) OVCAR-3, COV644, or MCF-7 cells were seeded at 1000 cells/well in 384-well black, clear bottom plates and allowed to adhere overnight at 37°C/5% CO2. The following day, cells were treated with compound in a 10-point dose response, 1:4 dilutions. After 5 days of incubation, CyQuant Direct Proliferation Assay was performed according to the manufacturer's instructions. Data were processed with GraphPad Prism using a four-parameter fit to calculate IC50.

[3] = target: CDK7/CycH1/MNAT1 (Homo sapiens, UniProt P50613); assay: ATP-competition caliper enzyme assay; type: biochemical; conditions: 1 mM ATP
Sequence of CDK7/CycH1/MNAT1 (P50613 whole entry): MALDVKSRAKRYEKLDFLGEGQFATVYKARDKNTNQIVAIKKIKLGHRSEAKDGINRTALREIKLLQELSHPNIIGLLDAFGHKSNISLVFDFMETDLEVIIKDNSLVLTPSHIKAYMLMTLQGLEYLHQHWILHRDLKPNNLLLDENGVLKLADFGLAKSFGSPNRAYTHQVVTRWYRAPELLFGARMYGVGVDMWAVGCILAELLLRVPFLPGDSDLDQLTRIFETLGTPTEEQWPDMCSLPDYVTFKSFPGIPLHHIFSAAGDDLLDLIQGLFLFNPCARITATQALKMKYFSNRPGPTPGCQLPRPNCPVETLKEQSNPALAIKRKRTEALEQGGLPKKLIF
Sequence of CDK7/CycH1/MNAT1 (P51946 whole entry partner): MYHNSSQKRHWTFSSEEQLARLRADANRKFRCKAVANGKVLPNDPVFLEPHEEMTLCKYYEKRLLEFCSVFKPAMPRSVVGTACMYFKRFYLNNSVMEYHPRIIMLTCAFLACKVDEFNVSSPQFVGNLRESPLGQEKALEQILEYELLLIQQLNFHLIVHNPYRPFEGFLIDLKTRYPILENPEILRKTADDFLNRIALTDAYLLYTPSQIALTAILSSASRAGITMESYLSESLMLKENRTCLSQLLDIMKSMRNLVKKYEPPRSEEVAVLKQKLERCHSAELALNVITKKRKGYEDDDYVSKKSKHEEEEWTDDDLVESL
Sequence of CDK7/CycH1/MNAT1 (P51948 whole entry partner): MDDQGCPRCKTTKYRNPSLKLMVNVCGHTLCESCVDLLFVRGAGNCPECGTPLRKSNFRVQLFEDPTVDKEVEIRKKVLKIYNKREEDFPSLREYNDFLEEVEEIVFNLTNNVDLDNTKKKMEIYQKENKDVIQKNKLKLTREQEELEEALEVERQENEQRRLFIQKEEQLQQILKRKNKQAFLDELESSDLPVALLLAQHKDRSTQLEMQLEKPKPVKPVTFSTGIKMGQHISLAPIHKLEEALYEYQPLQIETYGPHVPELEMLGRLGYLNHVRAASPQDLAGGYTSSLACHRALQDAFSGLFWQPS

[4] = tested on: kinases tested (n = 468); assay: KINOMEscan kinome selectivity; type: binding; conditions: fraction of kinases with <10% of control at 3 μM among 468 kinases tested
[5] = tested on: OVCAR-3 cells; assay: CyQuant proliferation assay; type: cell-based, human; conditions: proliferation, 5 days, mean of two independent replicates
Description: as §1

[6] = tested on: OVCAR-3 xenografts; assay: OVCAR-3 xenograft tumor growth inhibition; type: in vivo, NOD-SCID mice
Description: Female NOD-SCID mice were purchased from Shanghai Lingchang BioTech Co., Ltd at 6–8 weeks old. Mice were housed in solid bottom polycarbonate ventilated cages at a temperature of 20–26°C in 40–70% humidity. Mice were kept on a 12-h light,
Twelve-hour dark cycle with regularly changed 100% filtered air. Municipal water and rodent diet were provided ad libitum. The general health of the animals was monitored through gross observation, regular body weight measurement, and monitoring of food and water intake. All procedures related to animal handling, care, and treatment were performed according to the protocol approved by the Institutional Animal Care and Use Committee of Shanghai Chempartner following the guidance of the Association for Assessment and Accreditation of Laboratory Animal Care (AAALAC).
OVCAR-3 cells were passaged through mice once, and a cell line was rederived from the tumor, named ‘T2A.’ OVCAR-3 T2A cells were cultured in RPMI 1640 media supplemented with 20% FBS and 0.01 mg/ml insulin. To establish the OVCAR-3 xenograft model, 6 × 10^6 cells per mouse were implanted subcutaneously into the right hind flank of NOD-SCID female mice. Cells were suspended in 50% Matrigel and 50% RPMI 1640 media serum free media prior to implantation.
In OVCAR-3 tumor growth inhibition studies, animals were randomized and treatment began when tumors reached ∼200 mm^3 in size (n = at least eight/group). […] Etoposide was prepared in 5% DMSO + 40% PEG300 + 5%Tween 80 + 50%dd water and dosed intraperitoneally QD at 1.25 mg/kg for 3 days for each week of the study. Olaparib was prepared in 10% HP-ß-CD in water and dosed intraperitoneally QD at 50 mg/kg. Tumor sizes and body weight were measured twice weekly. Tumor sizes were measured in two dimensions using a caliper, and the volume (mm^3) was calculated using the formula: V = 0.5 a x b^2 where a and b are the long and short diameters of the tumor, respectively.

[7] = target: T1, CDK7/CycH1 (Homo sapiens, UniProt P50613); assay: NanoBRET target engagement assay; type: binding; conditions: HEK-293T cells transfected with CDK complex
T1 construct: expressed in transfected cells; host or cells: HEK293
T1 sequence (P50613 whole entry): as the sequence (P50613 whole entry) above
T1 sequence (P51946 whole entry partner): as the sequence (P51946 whole entry partner) above
Description: HEK293 cells were prepared to a final concentration of 100 000 cells/ml in 1% fetal bovine serum (FBS) Opti-MEM. Transfection mixtures were prepared with 1 μg of plasmid encoding NanoLuc-fused CDK and 9 μg of plasmid encoding cyclin, diluted in 1 ml Opti-MEM. FuGENE HD (Promega) was added to transfection mixture at a ratio of 30 μl/1 ml. After liposome formation, the lipid:DNA complex was added at a 1:20 ratio to HEK293 cells in suspension. Cells were plated in 384-well tissue culture plates and incubated overnight (20–30 h) at 37°C/5% CO2. Compounds were prepared from DMSO stock solutions and added to cell plates with a final top concentration of 10 000 nM. NanoBRET tracer solution was prepared from 100X tracer solution. For CDK1/cyclin B1, CDK9/cyclin T1, and CDK2/cyclin E1 assays, tracer K10 was used at a final concentration of 0.5 μM, 0.250 μM, and 0.125 μM, respectively. For CDK4/cyclin D1, and CDK6/cyclin D3, tracer K7 was used at a final concentration of 0.0625 μM. For CDK7/cyclin H1, tracer K7 was used at a final concentration of 0.5 μM. The plate was incubated at 37°C/5% CO2 for 2 h. NanoBRET substrate solution was prepared 15 min prior to the assay endpoint using serum-free OptiMEM. […] The plate was then shaken and read using the Perkin Elmer Envision plate reader. The donor emission was measured at 450 nm, followed by acceptor emission at 610 nm. […]

pharmacokinetics compared with BLU1851 [1]: superior pharmacokinetics
IC50 [2]: 1280 nM
IC50 [3]: > 6670 nM
IC50 [5]: 82.5 nM
IC50 [7]: 4420 nM
Structure (SMILES): CC(C)(O)Cn1cc(-c2nc(Nc3ccc(S(N)(=O)=O)cc3F)ncc2C(F)(F)F)cn1 [BLU2256]
Kinome S (10) [4]: 0.040
tumor growth inhibition ([6]; 3 mg/kg QD PO): sub-efficacious with minor tumor growth inhibition
tumor growth inhibition ([6]; 5 mg/kg BID PO): efficacious dose, inducing tumor stasis
body weight ([6]; dose titration, PO): without a change in body weight
tumor growth inhibition ([6]; dose titration, PO QD for 3 weeks): dose-dependent tumor growth inhibition
inhibition of RB1 phosphorylation in tumors ([6]; on-target activity): dose and time-dependent
